For 15 compounds, TGI results are on record in PubChem BioAssay (NCI).

Molecules are shown by their SMILES. Several values for one entry are separate records, joined by “and”; a condition that tells them apart may be missing. Equal values may be shown once.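 Cultured in 96-well plates, cells were exposed to test compound for 48 hours across five concentrations. TGI: concentration producing complete growth inhibition.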 Some results are limits rather than exact numbers.

Assay in all cases: inhibition of tumour cell growth, NCI panel, 48 h
Test [1] relates to M14 melanoma.
Test [2] has as its system SF-295 CNS.
The test system of test [3] is UO-31 renal.
Test [4] concerns MDA-N.
Test [5] has as its system LOX IMVI melanoma.
The test system of test [6] is SF-539 CNS.
In test [7] the test system is SK-MEL-2 melanoma.
In test [8] the test system is KM12 colon.
The subject of test [9] is HCT-116 colon.
Test [10] deals with EKVX NSCLC.
Test [11] has as its system IGROV1 ovarian.
Test [12] deals with NCI-H522 lung.
In test [13] the test system is NCI-H23 lung.
Test [14] relates to SK-MEL-28 melanoma.
Test [15] concerns PC-3 prostate.
Test [16] concerns SR leukemia.
In test [17] the test system is A549 NSCLC.
The test system of test [18] is T-47D breast.

With `CC(C)(C)CC(C)(C)N=C(N)NO`, the TGI in test [1] is > 100 µM; in test [2], > 100 µM; in [3], > 80.2 µM; in test [4] it was > 100 µM; in [5] it was > 100 µM; in test [6], > 100 µM. For the same compound, the TGI in [7], in test [8], in test [9], in test [10], in [11] and in test [12] was > 100 µM throughout. In addition, the TGI in [13], in test [14], in [15], in test [16], in test [17] and in test [18] was > 100 µM throughout.

On to `COc1ccc([C@H]2C=C(c3cc(F)c(Cl)cc3Cl)NC(=S)N2)cc1`, for which the TGI is > 100 µM in test [1]; > 100 µM in [2]; > 100 µM in test [3]; 33.2 µM in test [4]; > 100 µM in [5]; > 100 µM in test [6]. For the same compound, the TGI in test [7] was 58.4 µM; in test [8], > 100 µM; in [9], 84.9 µM; in test [10], > 100 µM; in test [11] it was > 100 µM; in [12] it was > 100 µM. Besides, the TGI is > 100 µM in test [13]; > 100 µM in [14]; 65.7 µM in test [15]; > 100 µM in test [16]; > 100 µM in test [17]; > 100 µM in test [18].

With `CCN(CC)CCOC(=O)CCN1CC2CCC(CC2)C1`, the TGI in [1], in test [2], in [3], in test [4], in test [5] and in test [6] was > 100 µM in each case. Further, the TGI in test [7], in [8], in test [9], in test [10], in test [11] and in [12] was > 100 µM in each case. For the same compound, the TGI in test [13], in test [14], in test [15], in [16], in test [17] and in test [18] was > 100 µM each time.

For `COc1cc(S(=O)(=O)Nc2nc(-c3ccc(N)cc3)cs2)ccc1Cl`, the TGI in test [1], in test [2], in test [3], in test [4], in test [5] and in test [6] was > 100 µM each time. Besides, the TGI in test [7], in test [8], in test [9], in test [10], in test [11] and in test [12] was > 100 µM in each case. Besides, the TGI in test [13], in test [14], in test [15], in [16], in test [17] and in [18] was > 100 µM each time.

Turning to `CC1(c2nc3ccccc3[nH]2)CCC(C(N)=O)C(C)(C)O1` (stereo not given), the TGI in test [1], in test [2], in test [3], in test [4], in test [5] and in [6] was > 100 µM in each case. The TGI in test [7], in test [8], in test [9], in test [10], in test [11] and in test [12] was > 100 µM each time. The TGI in test [13], in test [14], in test [15], in [16], in test [17] and in test [18] was > 100 µM each time.

For `COC(=O)[C@@H]1C2OC(C)(C)OC2CN1C(=O)OCc1ccccc1` (stereo not given in full), the TGI in test [1], in [2], in test [3], in test [4], in [5] and in test [6] was > 100 µM in each case. For the same compound, the TGI in test [7], in [8], in test [9], in test [10], in [11] and in test [12] was > 100 µM each time. Besides, the TGI in test [13], in [14], in test [15], in [16], in [17] and in test [18] was > 100 µM each time.

On to `CCCNC(C#N)c1ccc(OCCCCCCCCCCOc2ccc(C(C#N)NCCC)cc2)cc1` (stereo not given), for which the TGI was > 100 µM in test [1]; > 100 µM in test [2]; > 100 µM in test [3]; > 100 µM in test [4]; 34.6 µM in test [5]; > 100 µM in test [6]. Also, the TGI in [7], in test [8], in [9], in test [10], in test [11] and in test [12] was > 100 µM in each case. In addition, the TGI in test [13] is > 100 µM; in test [14] it was > 100 µM; in test [15], > 100 µM; in [16] it was 61.3 µM; in test [17], > 100 µM; in [18] it was > 100 µM.

`COc1cc(Br)cc2nc(-c3cccs3)oc12`: the TGI in test [1], in test [2], in test [3], in test [4], in test [5] and in test [6] was > 100 µM each time. In addition, the TGI in test [7], in test [8], in [9], in test [10], in test [11] and in test [12] was > 100 µM each time. The TGI in [13], in test [14], in test [15], in test [16], in [17] and in [18] was > 100 µM each time.

Regarding `O=C1CSC(c2ccc(Cl)cc2)N1c1ccc(-c2ccc(-n3c(-c4ccccc4)nc4ccccc4c3=O)cc2)cc1` (stereo not given), the TGI in test [1] was > 100 µM; in [2], > 100 µM; in [3] it was 59.5 µM; in test [4], > 100 µM; in test [5] it was 45.2 µM; in test [6] it was > 100 µM. In addition, the TGI in [7], in test [8], in test [9], in [10], in [11] and in test [12] was > 100 µM each time. Further, the TGI in [13] was > 100 µM; in [14], > 100 µM; in test [15] it was > 100 µM; in test [16], > 100 µM; in test [17], > 100 µM; in test [18] it was 52.1 µM.

Turning to `O=C(Nc1sccc1S(=O)(=O)c1ccc(Cl)cc1)C(F)(F)F`, the TGI in test [1] was > 100 µM; in test [2], > 100 µM; in test [3] it was > 100 µM; in test [4], 77.3 µM; in [5], > 100 µM; in test [6], 93.7 µM. For the same compound, the TGI in test [7] is 48.4 µM; in test [8] it was 61.4 µM; in [9] it was 37 µM; in test [10], > 100 µM; in [11], > 100 µM; in test [12], > 100 µM. In addition, the TGI in test [13] was > 100 µM; in test [14], > 100 µM; in test [15], > 100 µM; in [16], 58.3 µM; in [17], > 100 µM; in test [18], > 100 µM.

In the case of `CCOC(=O)CCC(NC(=O)c1ccc(Nc2nc3ccccc3n3cccc23)cc1)C(=O)OCC` (stereo not given), the TGI in [1] is > 100 µM; in test [2], 71.1 µM; in test [3], > 100 µM; in test [4] it was > 100 µM; in test [5], > 100 µM; in test [6], 34.6 µM. The TGI in test [7] is 39.7 µM; in [8] it was > 100 µM; in test [9], > 100 µM; in [10] it was > 100 µM; in [11], > 100 µM; in test [12], 60 µM. The TGI in test [13] is > 100 µM; in test [14] it was > 100 µM; in test [15], 34.5 µM; in [16], > 100 µM; in test [17], > 100 µM; in test [18] it was 1.99 µM.

For the compound `OCc1ccc2c(c1)CC1(C2)Cc2cc3c(cc2C1)CCC3`, the TGI in test [1] is > 100 µM; in test [2] it was > 44.5 µM; in [3] it was > 100 µM; in test [4], 1.74 µM; in [5], > 100 µM; in test [6] it was > 100 µM. Further, the TGI is > 100 µM in test [7]; > 100 µM in test [8]; > 100 µM in test [9]; > 100 µM in test [10]; > 100 µM in [11]; > 27.6 µM in test [12]. The TGI in [13] was > 100 µM; in test [14], > 100 µM; in [15], > 34.6 µM; in test [16] it was > 100 µM; in [17], > 100 µM; in test [18], > 100 µM.

As to `Cc1ccc(CC2(OCCN(C)C)CCC(C(C)(C)C)CC2)cc1` (stereo not given), the TGI in test [1] is 3.36 µM and 3.35 µM; in test [2] it was 9.86 µM and 9.5 µM; in test [3], 14.6 µM and 19 µM; in test [4] it was 6.96 µM and 5.28 µM; in [5], 3 µM and 3.97 µM; in [6], 4.55 µM and 8.81 µM. The TGI was 4.96 µM and 5.35 µM in [7]; 13 µM and 10.4 µM in test [8]; 6.73 µM and 6.24 µM in test [9]; 21.6 µM and 28 µM in test [10]; 19.4 µM and 21.5 µM in test [11]; 9.28 µM and 10.8 µM in test [12]. Besides, the TGI is 25.6 µM and 24.4 µM in [13]; 4.08 µM and 4.04 µM in test [14]; 13.7 µM and 15.2 µM in [15]; 4.67 µM and 5.58 µM in [16]; 14 µM and 20.4 µM in test [17]; 8.34 µM and 6.33 µM in test [18].

As to `CCO/C=N/C1=C(C#N)C(c2ccc(Cl)cc2)c2c(-c3ccccc3)nn(-c3ccccc3)c2O1` (stereo not given), the TGI was 20.3 µM in [1]; 32.2 µM in test [2]; 31.9 µM in test [3]; 45.8 µM in test [4]; 31 µM in [5]; > 26.2 µM in test [6]. Moreover, the TGI in test [7] was 34.8 µM; in test [8] it was 18.7 µM; in test [9] it was > 47.9 µM; in test [10], > 31.6 µM; in test [11] it was 45.2 µM; in test [12], 18.2 µM. The TGI in test [13] was 24.5 µM; in test [14], 39.5 µM; in test [15] it was 22.7 µM; in [16], > 100 µM; in test [17], 21.5 µM; in test [18], > 100 µM.

As to `COc1ccc2oc(=O)c3c(c2c1C)OC(C)(C)C=C3`, the TGI in test [1], in test [2], in test [3], in [4], in test [5] and in test [6] was > 100 µM each time. For the same compound, the TGI in test [7], in test [8], in [9], in test [10], in test [11] and in test [12] was > 100 µM throughout. Further, the TGI in test [13], in test [14], in test [15], in [16], in test [17] and in [18] was > 100 µM each time.
